Results published in ChEMBL document CHEMBL6153103, “Novel Bioorthogonal Theranostic Scaffold Enables on-Target Drug Release and Real Time Monitoring In Vivo” (J Med Chem, 2025).
The source made the active and inactive calls. The calls are words filed in the database; no cut-off is given here.

Columns and labels:
[1] = Drug uptake in human HeLa cells assessed as increase in blue fluorescence intensity at 100 uM incubated for 1 hr by confocal fluorescence microscopic analysis; assay type: ADME, cell-based
[2] = system: A549; test: Cytotoxicity against human A549 cells assessed as inhibition of cell proliferation upto 20 uM incubated for 72 hrs by CCK-8 assay; assay type: functional, cell-based
[3] = Drug uptake in human HEK293T cells assessed as increase in blue fluorescence intensity at 100 uM incubated for 1 hr by confocal fluorescence microscopic analysis; assay type: ADME, cell-based; conditions: hek-293t
[4] = Prodrug release in human A549 cells assessed as DOX release by measuring increase in fluorescence intensity at 50 uM measured after 2 hrs by confocal microscopy; assay type: ADME, cell-based; conditions: a549, 2 h
[5] = system: A549; test: Cytotoxicity against human A549 cells assessed as cell viability incubated for 72 hrs by CCK-8 assay; assay type: functional, cell-based; conditions: A549, 72 h
[6] = system: A549; test: Cytotoxicity against human A549 cells assessed as inhibition of cell proliferation incubated for 72 hrs by CCK-8 assay; assay type: functional, cell-based; conditions: A549, 72 h
[7] = system: A549; test: Cytotoxicity against human A549 cells assessed as inhibition of cell proliferation incubated for 72 hrs in presence of 60 uM 4-(6-methyl-1,2,4,5-tetrazin-3-yl)benzyl 3-(2-hydroxyethoxy)-2,3-dihydrophenanthro[9,10-b][1,4]dioxine-7-carboxylate by CCK-8 assay; assay type: functional, cell-based; conditions: A549, 72 h
[8] = system: A549; test: Cytotoxicity against human A549 cells assessed as inhibition of cell proliferation incubated for 72 hrs in presence of 80 uM 4-(6-methyl-1,2,4,5-tetrazin-3-yl)benzyl 3-(2-hydroxyethoxy)-2,3-dihydrophenanthro[9,10-b][1,4]dioxine-7-carboxylate by CCK-8 assay; assay type: functional, cell-based; conditions: A549, 72 h
[9] = system: A549; test: Cytotoxicity against human A549 cells assessed as inhibition of cell proliferation incubated for 72 hrs in presence of 10 uM 4-(6-methyl-1,2,4,5-tetrazin-3-yl)benzyl 3-(2-hydroxyethoxy)-2,3-dihydrophenanthro[9,10-b][1,4]dioxine-7-carboxylate by CCK-8 assay; assay type: functional, cell-based; conditions: A549, 72 h
[10] = system: HeLa; test: Cytotoxicity against human HeLa cells assessed as inhibition of cell proliferation incubated for 72 hrs by CCK-8 assay; assay type: functional, cell-based
[11] = Prodrug release in human A549 cells xenografted in BALB/c nude mouse assessed as DOX release by measuring change in green fluorescence intensity in tumor at 5 mg/kg, ip administered for 1 hr by DAPI staining based confocal microscopic analysis; assay type: ADME, organism-based; conditions: in vivo
[12] = Prodrug activation in human A549 cells xenografted in BALB/c nude mouse assessed as blue fluorescence intensity in tumor at 5 mg/kg, ip administered for 1 hr by confocal microscopic analysis; assay type: organism-based; conditions: in vivo
[13] = system: HeLa; test: Cytotoxicity against human HeLa cells assessed as inhibition of cell proliferation incubated for 72 hrs 15 uM of 4-(6-methyl-1,2,4,5-tetrazin-3-yl)benzyl 3-(2-hydroxyethoxy)-2,3-dihydrophenanthro[9,10-b][1,4]dioxine-7-carboxylate by CCK-8 assay; assay type: functional, cell-based
[14] = Cytotoxicity against human HEK293T cells assessed as inhibition of cell proliferation incubated for 72 hrs 15 uM of 4-(6-methyl-1,2,4,5-tetrazin-3-yl)benzyl 3-(2-hydroxyethoxy)-2,3-dihydrophenanthro[9,10-b][1,4]dioxine-7-carboxylate by CCK-8 assay; assay type: toxicity, cell-based, HEK-293T
[15] = system: HeLa; test: Cytotoxicity against human HeLa cells assessed as inhibition of cell proliferation incubated for 72 hrs 15 uM of (4-((2-((10-(((4-(6-methyl-1,2,4,5-tetrazin-3-yl)benzyl)oxy)carbonyl)-2,3-dihydrophenanthro[9,10-b][1,4]dioxin-2-yl)oxy)ethoxy)carbonyl)phenyl)boronic acid by CCK-8 assay; assay type: functional, cell-based
[16] = system: A549; test: Cytotoxicity against human A549 cells assessed as inhibition of cell proliferation incubated for 72 hrs in presence of 15 uM 4-(6-methyl-1,2,4,5-tetrazin-3-yl)benzyl 3-(2-hydroxyethoxy)-2,3-dihydrophenanthro[9,10-b][1,4]dioxine-7-carboxylate by CCK-8 assay; assay type: functional, cell-based; conditions: A549, 72 h
[17] = Cytotoxicity against human HEK293T cells assessed as inhibition of cell proliferation incubated for 72 hrs 15 uM of (4-((2-((10-(((4-(6-methyl-1,2,4,5-tetrazin-3-yl)benzyl)oxy)carbonyl)-2,3-dihydrophenanthro[9,10-b][1,4]dioxin-2-yl)oxy)ethoxy)carbonyl)phenyl)boronic acid by CCK-8 assay; assay type: toxicity, cell-based, HEK-293T
[18] = Cytotoxicity against human HEK293T cells assessed as inhibition of cell proliferation incubated for 72 hrs by CCK-8 assay; assay type: toxicity, cell-based, HEK-293T
[19] = Prodrug release in human A549 cells assessed as DOX release by measuring increase in fluorescence intensity at 100 uM measured after 2 hrs by confocal microscopy; assay type: ADME, cell-based; conditions: a549, 2 h

With `Cc1nnc(-c2ccc(COC(=O)c3ccc4c5c(c6ccccc6c4c3)OCC(OCCO)O5)cc2)nn1` (centres undefined) the Drug uptake [1] was “Not_active”, the Activity [2] was “Active” and the Drug uptake [3] was “Not_active”. The Drug metabolism [4] was “metabolite_detected” and the EC50 [5] was > 50 µM.
For `CO[C@@]12[C@H](COC(N)=O)C3=C(C(=O)C(C)=C(N)C3=O)N1C[C@@H]1N[C@@H]12` [MITOMYCIN], the IC50 [6] was 30 nM.
In the case of `[C-]#[N+]CCCOC(=O)N1[C@H]2[C@@H]1CN1C3=C(C(=O)C(N)=C(C)C3=O)[C@@H](COC(N)=O)[C@@]21OC`, the IC50 [7] is reported as 239 nM, the IC50 [8] is reported as 239 nM and the IC50 [6] is reported as 359 nM. It also gave an IC50 [9] of 313 nM.
With `COc1cccc2c1C(=O)c1c(O)c3c(c(O)c1C2=O)C[C@@](O)(C(=O)CO)C[C@@H]3O[C@H]1C[C@H](N)[C@H](O)[C@H](C)O1` [DOXORUBICIN] the IC50 [10] was 14 nM.
For `Cc1nnc(-c2ccc(COC(=O)c3ccc4c5c(c6ccccc6c4c3)OCC(OCCOC(=O)c3ccc(B(O)O)cc3)O5)cc2)nn1` (centres undefined), the Drug metabolism [11] was “metabolite_detected” and the Drug metabolism [12] was “metabolite_notdetected”.
With `Cc1nnc(-c2ccc(COC(=O)c3ccc4c5c(c6ccccc6c4c3)OCC(OCCO)O5)cc2)c2c1CCCCCC2` (centres undefined) the Activity [2] was “Active” and the EC50 [5] was > 50 µM.
Compound `COc1cccc2c1C(=O)c1c(O)c3c(c(O)c1C2=O)C[C@@](O)(C(=O)CO)C[C@@H]3O[C@H]1C[C@H](NC(=O)OC2/C=C/CCCCC2)[C@H](O)[C@H](C)O1` (some centres undefined) has an IC50 [13] of 59 nM, an IC50 at 72 h [14] of 126 nM and an IC50 [10] of 989 nM. For the same compound, the IC50 [15] was 30 nM, the IC50 [16] was 58 nM and the IC50 [6] was 537 nM. For the same compound, the Drug metabolism [11] was “metabolite_detected”, the Drug uptake [1] was “Not_active” and the Drug uptake [3] was “Not_active”. The Drug metabolism [12] was “metabolite_notdetected”, the IC50 at 72 h [17] was 145 nM and the IC50 at 72 h [18] was 1150 nM. The IC50 [9] was 67 nM and the Drug metabolism [19] was “metabolite_detected”.
